#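 Tested at 5 concentrations; 48 h exposure; 96-well plates; endpoints linearly interpolated, else capped at highest concentration. TGI is the concentration that stops growth completely.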
# Columns and labels:
# Assay in all cases: NCI tumour cell line growth inhibition, 48 h
# [1] = tested on: SK-MEL-5 melanoma
# [2] = tested on: K-562 leukemia
# [3] = tested on: SN12C renal
# [4] = tested on: SK-MEL-28 melanoma
# [5] = tested on: SR leukemia
# [6] = tested on: MCF7 breast
# [7] = tested on: T-47D breast
# [8] = tested on: OVCAR-3 ovarian
# [9] = tested on: HCT-116 colon
# [10] = tested on: BT-549 breast
# [11] = tested on: SF-295 CNS
# [12] = tested on: MDA-MB-231 breast
# [13] = tested on: SF-268 CNS
# [14] = tested on: HCC-2998 colon
# [15] = tested on: M14 melanoma
# [16] = tested on: U251 CNS
# [17] = tested on: HL-60(TB) leukemia
# [18] = tested on: MDA-N
# [19] = tested on: 786-0 renal
# [20] = tested on: CCRF-CEM leukemia
SMILES,TGI [1] [µM],TGI [2] [µM],TGI [3] [µM],TGI [4] [µM],TGI [5] [µM],TGI [6] [µM],TGI [7] [µM],TGI [8] [µM],TGI [9] [µM],TGI [10] [µM],TGI [11] [µM],TGI [12] [µM],TGI [13] [µM],TGI [14] [µM],TGI [15] [µM],TGI [16] [µM],TGI [17] [µM],TGI [18] [µM],TGI [19] [µM],TGI [20] [µM]
CNC(=O)C1CCCN1C(=O)C(Cc1cnc[nH]1)NC(=O)C1CCC(=O)N1 (stereo not given),> 100,> 100,> 100,> 100,> 100,> 100,> 100,> 100,> 100,> 100,> 100,> 100,> 100,> 100,> 100,> 100,> 100,> 100,> 100,> 100
COc1cc([C@H]2CC(=O)C[C@@H](c3cc(OC)c(OC)c(OC)c3)C23C(=O)c2ccccc2C3=O)cc(OC)c1OC,> 100,> 100,> 100,> 100,> 100,> 100,> 100,> 100,> 100,> 100,> 100,> 100,> 100,> 100,> 100,> 100,> 100,> 100,> 100,> 100
CC1=NN(C(=O)CC(=O)Nc2cccc(C)c2)C(=O)C1N=Nc1ccc(S(=O)(=O)c2ccc(N=NC3C(=O)N(C(=O)CC(=O)Nc4cccc(C)c4)N=C3C)cc2)cc1 (stereo not given),> 100,> 100,> 100,> 100,> 100,> 100,> 100,> 100,> 100,> 100,> 100,> 100,> 100,> 100,> 100,> 100,> 100,> 100,> 100,> 100
OCCCc1cc(O)c2c(c1)C(CO)C(c1ccc(O)c(O)c1)O2 (stereo not given),> 100,> 100,> 100,> 100,> 100,> 100,> 100,> 100,> 100,> 100,> 100,> 100,> 100,> 100,> 100,> 100,> 100,> 100,> 100,> 100
O=C1/C(=C/c2ccc(Cl)cc2)N=C(c2ccccc2)N1c1nc2c(Cl)cc(Cl)cc2s1,57.9,> 100,57.8,> 100,42.5,> 100,70.2,50.9,50.8,82.9,> 100,92.3,> 100,> 100,> 100,50.9,43.1,39.2,> 100,20.7

# From PubChem BioAssay (NCI)
